Article PMC6146087, “α-Glucosidase Inhibitors From the Coral-Associated Fungus Aspergillus terreus” (Frontiers in Chemistry, 2018)

Target: T1, α-glucosidase enzyme from Saccharomyces cerevisiae (Saccharomyces cerevisiae, UniProt P53341)
T1 construct: purchased Sigma Aldrich, USA
Test: biochemical
Description: The α-glucosidase enzyme from Saccharomyces cerevisiae (Sigma Aldrich, USA) solution (1.5 U/mL) was prepared by dissolving the α-glucosidase in […] phosphate buffer (pH 6.8). The α-glucosidase enzyme solution (20 μL), test compounds (10 μL) and buffer (40 μL) were pipetted and mixed in a 96 well microtiter plate. The mixture was incubated at 37°C for 10 min. After incubation, p-nitrophenyl-α-D-glucopyranoside (PNP-G) substrate solution (10 μL, in 20 mM phosphate buffer) was added. The increment of absorbance due to the hydrolysis of PNP-G by α-glucosidase was measured at the wavelength of 410 nm with a microplate reader (Thermo Scientific, Waltham, MA). […] The α-glucosidase inhibitory activity was expressed as percentage inhibition and was calculated using the following formula: inhibition (%) = [1–(ODsample/ODblank)] × 100.

T1 sequence (P53341 whole entry): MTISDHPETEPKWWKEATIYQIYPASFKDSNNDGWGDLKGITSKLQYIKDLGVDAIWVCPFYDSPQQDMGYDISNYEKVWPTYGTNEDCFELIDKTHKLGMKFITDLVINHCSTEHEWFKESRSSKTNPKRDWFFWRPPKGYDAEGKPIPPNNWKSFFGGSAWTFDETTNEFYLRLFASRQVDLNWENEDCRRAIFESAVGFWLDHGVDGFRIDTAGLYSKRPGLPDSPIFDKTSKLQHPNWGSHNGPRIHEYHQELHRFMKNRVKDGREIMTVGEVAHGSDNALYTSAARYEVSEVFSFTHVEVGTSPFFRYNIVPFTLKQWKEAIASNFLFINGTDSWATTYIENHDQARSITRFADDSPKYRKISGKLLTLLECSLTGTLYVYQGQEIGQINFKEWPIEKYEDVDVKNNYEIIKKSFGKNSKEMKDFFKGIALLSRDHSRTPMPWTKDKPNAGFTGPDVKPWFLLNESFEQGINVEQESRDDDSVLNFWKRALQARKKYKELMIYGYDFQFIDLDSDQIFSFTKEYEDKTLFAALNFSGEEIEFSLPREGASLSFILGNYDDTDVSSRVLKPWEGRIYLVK

COc1ccc(C2=C(Cc3ccc4c(c3)CC(C(C)(C)O)O4)[C@H](OC)OC2=O)cc1 (single isomer, unassigned; (+)) [3b, (+)-Asperteretone C]
IC50: 49.8 ± 5.7 µM

COc1ccc(C2=C(Cc3ccc4c(c3)CC(C(C)(C)O)O4)[C@@H](OC)OC2=O)cc1 (single isomer, unassigned; (-)) [3a, (−)-Asperteretone C]
IC50: 52.2 ± 4.6 µM

COC(=O)[C@@H](Cc1ccc(O)c(CC=C(C)C)c1)[C@H](C(=O)O)c1ccc(O)cc1 [1a, (−)-Asperteretone A]
IC50: 45.4 ± 3.8 µM

COC(=O)[C@H](Cc1ccc(O)c(CC=C(C)C)c1)[C@@H](C(=O)O)c1ccc(O)cc1 [1b, (+)-Asperteretone A]
IC50: 53.1 ± 1.4 µM

CO[C@H]1OC(=O)C(c2ccc(O)cc2)=C1Cc1ccc(O)c(CC=C(C)C)c1 [2a, (−)-Asperteretone B]
IC50: 17.3 ± 2.4 µM

CO[C@@H]1OC(=O)C(c2ccc(O)cc2)=C1Cc1ccc(O)c(CC=C(C)C)c1 [2b, (+)-Asperteretone B]
IC50: 19.2 ± 1.9 µM

CO[C@H]1OC(=O)C(c2ccc(O)cc2)=C1Cc1ccc2c(c1)CCC(C)(C)O2 [4a, (−)-Asperteretone D]
IC50: 15.7 ± 1.1 µM

CO[C@@H]1OC(=O)C(c2ccc(O)cc2)=C1Cc1ccc2c(c1)CCC(C)(C)O2 [4b, (+)-Asperteretone D]
IC50: 18.9 ± 2.3 µM

COC1OC(=O)C(c2ccc(O)cc2)=C1Cc1ccc(O)c(CCC(C)(C)O)c1 (stereo not drawn) [compound 5, Asperteretone E]
IC50: 48.9 ± 7.3 µM
